Test results from patent US20250188040A1, “PHARMACEUTICAL COMPOSITIONS COMPRISING WRN HELICASE INHIBITORS” (Vividion Therapeutics, Inc., priority 2022, published 2025).
Read-outs that look alike come from different tables or passages of the source.

Columns and labels:
[1] = target: T1, WRN C727 (Homo sapiens, UniProt Q14191); assay: Target engagement, in situ (cell), OCI-AML2; format: cell-based; conditions: OCI-AML2 cells, read-out: OCI-AML2 WRN C727 TE50 in situ (cell)
T1 construct: endogenous in cells; host or cells: OCI-AML2
Method: Cells or cell lysates were treated with a dose response of compound followed by probe treatment, which labels solvent exposed cysteines. Proteins were enzymatically digested with trypsin and probe-labelled peptides were enriched with streptavidin. Isolated peptides were then separated using reversed-phase liquid chromatography on a C18 column (Dionex Ultimated 3000 nano-LC, Thermo). Peptides were analyzed by parallel reaction monitoring mass spectrometry (Exploris 120, Thermo).
Target engagement (%) is calculated relative to DMSO treated control samples.

[2] = target: T1, WRN C727; assay: Target engagement, in vitro (lysate), OCI-AML2; format: binding; conditions: read-out: OCI-AML2 WRN C727 TE50 in vitro (lysate)
Summary of the method: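 OCI-AML2 intact cells or lysates dosed with compound, then a cysteine-reactive probe; after trypsin digestion, probe-labelled peptides were streptavidin-enriched and quantified by nano-LC parallel reaction monitoring MS. Engagement (%) relative to DMSO controls.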

[3] = target: hWRN(519-1227)_C-H3CV-GFP-10His (Homo sapiens, UniProt Q14191); assay: Helicase Assay for WRN Inhibition (ATP-dependent, fluorescence based)
[4] = tested on: SW480 cells; assay: Cell growth assay (CellTiter-Glo 2.0), SW480 MSS cell line; conditions: Homo sapiens, SW480, 120 h, read-out: Cell Growth Inhibition GI50 SW480
[5] = tested on: HCT 116 cells; assay: Cell growth assay (CellTiter-Glo 2.0), HCT 116 MSI-H cell line; conditions: Homo sapiens, HCT-116, 120 h, read-out: Cell Growth Inhibition GI50 HCT-116
[6] = WRN Helicase IC50, 30 min preincubation with ATP, 30 min reaction

Chain of hWRN(519-1227)_C-H3CV-GFP-10His (Q14191 519-1227): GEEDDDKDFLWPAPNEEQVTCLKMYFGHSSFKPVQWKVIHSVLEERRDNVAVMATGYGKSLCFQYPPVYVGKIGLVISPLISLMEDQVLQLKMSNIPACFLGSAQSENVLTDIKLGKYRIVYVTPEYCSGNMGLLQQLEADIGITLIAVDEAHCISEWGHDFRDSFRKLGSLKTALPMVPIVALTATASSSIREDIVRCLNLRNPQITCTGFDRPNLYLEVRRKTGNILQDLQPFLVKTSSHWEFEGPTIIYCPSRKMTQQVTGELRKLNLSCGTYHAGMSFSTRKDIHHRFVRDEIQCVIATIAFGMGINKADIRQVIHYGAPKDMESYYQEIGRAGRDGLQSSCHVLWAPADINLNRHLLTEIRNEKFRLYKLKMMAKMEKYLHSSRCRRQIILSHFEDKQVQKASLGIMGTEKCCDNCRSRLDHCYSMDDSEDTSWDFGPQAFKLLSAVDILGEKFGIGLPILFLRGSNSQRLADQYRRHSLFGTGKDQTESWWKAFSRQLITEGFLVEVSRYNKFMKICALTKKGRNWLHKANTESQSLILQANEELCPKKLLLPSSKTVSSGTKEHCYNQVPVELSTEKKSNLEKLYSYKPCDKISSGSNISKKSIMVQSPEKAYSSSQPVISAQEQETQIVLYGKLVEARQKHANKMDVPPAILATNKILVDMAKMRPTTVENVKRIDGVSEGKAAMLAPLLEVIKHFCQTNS
T1 sequence (Q14191 whole entry): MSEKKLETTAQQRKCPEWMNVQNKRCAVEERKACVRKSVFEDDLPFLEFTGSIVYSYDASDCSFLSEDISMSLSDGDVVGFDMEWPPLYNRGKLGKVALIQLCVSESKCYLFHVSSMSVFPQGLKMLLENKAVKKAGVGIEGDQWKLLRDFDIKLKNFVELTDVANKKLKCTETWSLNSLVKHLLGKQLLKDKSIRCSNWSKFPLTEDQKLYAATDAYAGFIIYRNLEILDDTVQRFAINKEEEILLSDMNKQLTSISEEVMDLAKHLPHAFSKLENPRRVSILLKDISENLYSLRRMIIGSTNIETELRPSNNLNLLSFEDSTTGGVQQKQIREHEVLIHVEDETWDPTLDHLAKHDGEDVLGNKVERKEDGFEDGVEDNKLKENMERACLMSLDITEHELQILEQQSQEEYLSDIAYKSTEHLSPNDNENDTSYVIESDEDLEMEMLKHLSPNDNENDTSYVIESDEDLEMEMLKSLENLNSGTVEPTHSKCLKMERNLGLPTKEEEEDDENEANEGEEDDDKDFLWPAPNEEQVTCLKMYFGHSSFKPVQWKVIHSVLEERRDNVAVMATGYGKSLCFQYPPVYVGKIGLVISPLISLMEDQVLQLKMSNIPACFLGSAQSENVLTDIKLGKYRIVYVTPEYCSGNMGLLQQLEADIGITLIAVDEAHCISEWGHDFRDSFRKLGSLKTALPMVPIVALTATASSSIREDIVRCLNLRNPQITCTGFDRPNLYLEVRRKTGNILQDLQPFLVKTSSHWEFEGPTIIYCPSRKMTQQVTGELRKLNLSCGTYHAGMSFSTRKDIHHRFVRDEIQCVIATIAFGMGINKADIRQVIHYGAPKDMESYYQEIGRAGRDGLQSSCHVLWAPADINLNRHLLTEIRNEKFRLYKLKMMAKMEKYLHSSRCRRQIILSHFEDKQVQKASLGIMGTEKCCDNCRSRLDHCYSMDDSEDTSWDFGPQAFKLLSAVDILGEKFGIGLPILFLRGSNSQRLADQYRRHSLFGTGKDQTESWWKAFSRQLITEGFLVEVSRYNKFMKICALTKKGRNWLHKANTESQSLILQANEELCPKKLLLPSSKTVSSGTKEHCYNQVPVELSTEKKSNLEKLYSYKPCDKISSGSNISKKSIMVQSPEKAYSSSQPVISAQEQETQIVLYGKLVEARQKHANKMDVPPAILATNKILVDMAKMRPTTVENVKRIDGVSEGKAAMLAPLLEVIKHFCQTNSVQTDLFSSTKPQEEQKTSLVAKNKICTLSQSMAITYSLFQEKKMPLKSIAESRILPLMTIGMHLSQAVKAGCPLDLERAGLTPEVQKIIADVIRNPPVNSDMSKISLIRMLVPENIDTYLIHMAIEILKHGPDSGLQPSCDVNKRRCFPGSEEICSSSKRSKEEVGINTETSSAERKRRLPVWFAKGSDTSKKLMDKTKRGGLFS

| IC50 [1] [µM] | IC50 [2] [µM] | IC50 [3, 6] [µM] | GI50 [4] [µM] | GI50 [5] [µM] | IC50 [3] [µM] | Structure (SMILES) |
| --- | --- | --- | --- | --- | --- | --- |
| 20.4 | > 100 | 148 |  |  |  | C[C@@H](/C=C/S(C)(=O)=O)NC(=O)c1cnc(-c2ccccc2)nc1Oc1ccccc1 [Example 80, (S,E)-N-(4-(methylsulfonyl)but-3-en-2-yl)-4-phenoxy-2-phenylpyrimidine-5-carboxamide] |
| 50 | > 100 | 87 |  |  |  | CCc1cccc(Oc2nc(C3CCCC3)ncc2C(=O)N[C@@H](C)/C=C/S(C)(=O)=O)c1 [Example 108, (S,E)-2-cyclopentyl-4-(3-ethylphenoxy)-N-(4-(methylsulfonyl)but-3-en-2-yl)pyrimidine-5-carboxamide] |
|  | 75 | 8.6 | > 10 | 7.2 |  | C[C@@H](/C=C/S(C)(=O)=O)NC(=O)c1ccc(C2=CCCC2)nc1Oc1ccccc1 [Example 202, (S,E)-6-(cyclopent-1-en-1-yl)-N-(4-(methylsulfonyl)but-3-en-2-yl)-2-phenoxynicotinamide] |
|  | > 100 | 11 | 12.7 | 2.16 |  | CC(C)=Cc1ncc(C(=O)N[C@@H](C)/C=C/S(C)(=O)=O)c(Oc2ccccc2)n1 [Example 213, (S,E)-2-(2-methylprop-1-en-1-yl)-N-(4-(methylsulfonyl)but-3-en-2-yl)-4-phenoxypyrimidine-5-carboxamide] |
|  | > 100 | 10 | > 19.5 | 2.47 |  | CC(C)Cc1ncc(C(=O)N[C@@H](C)/C=C/S(C)(=O)=O)c(Oc2ccccc2)n1 [Example 214, (S,E)-2-isobutyl-N-(4-(methylsulfonyl)but-3-en-2-yl)-4-phenoxypyrimidine-5-carboxamide] |
|  | 13.8 | 7.74 | > 10 | 2.2 |  | C[C@@H](/C=C/S(C)(=O)=O)NC(=O)c1cnc(C2(O)CCCC2)nc1Oc1ccccc1 [Example 216, (S,E)-2-(1-hydroxycyclopentyl)-N-(4-(methylsulfonyl)but-3-en-2-yl)-4-phenoxypyrimidine-5-carboxamide] |
|  | 17.1 | 4.3 | > 29.3 | 1.38 |  | C[C@@H](/C=C/S(C)(=O)=O)NC(=O)c1cnc(C(C)(C)O)nc1Oc1ccccc1 [Example 218, (S,E)-2-(2-hydroxypropan-2-yl)-N-(4-(methylsulfonyl)but-3-en-2-yl)-4-phenoxypyrimidine-5-carboxamide] |
|  | 20 | 8.3 | 52 | 2 |  | COC(C)(C)c1ncc(C(=O)N[C@@H](C)/C=C/S(C)(=O)=O)c(Oc2ccccc2)n1 [Example 221, (S,E)-2-(2-methoxypropan-2-yl)-N-(4-(methylsulfonyl)but-3-en-2-yl)-4-phenoxypyrimidine-5-carboxamide] |
|  | 1.3 | 0.444 | > 15 | 0.133 |  | C[C@@H](/C=C/S(C)(=O)=O)NC(=O)c1cnc(C23CC(C2)C3)nc1Oc1ccccc1 [Example 222, (S,E)-2-(bicyclo[1.1.1]pentan-1-yl)-N-(4-(methylsulfonyl)but-3-en-2-yl)-4-phenoxypyrimidine-5-carboxamide] |
|  | 0.23 | 0.18 | 19 | 0.0539 |  | C[C@@H](/C=C/S(C)(=O)=O)NC(=O)c1cnc(C(F)(F)C2CC2)nc1Oc1ccccc1 [Example 223, (S,E)-2-(cyclopropyldifluoromethyl)-N-(4-(methylsulfonyl)but-3-en-2-yl)-4-phenoxypyrimidine-5-carboxamide] |
|  | 0.81 | 0.11 | 14 | 0.0166 |  | CCC(F)(F)c1ncc(C(=O)N[C@H](/C=C/S(C)(=O)=O)C2CC2)c(Oc2ccccc2)n1 [Example 230, (S,E)-N-(1-cyclopropyl-3-(methylsulfonyl)allyl)-2-(1,1-difluoropropyl)-4-phenoxypyrimidine-5-carboxamide] |
|  | 0.42 | 0.21 | 61 | 0.038 |  | CC(F)(F)c1cc(Oc2ccccc2)c(C(=O)N[C@H](/C=C/S(C)(=O)=O)C2CC2)cn1 [Example 231, (S,E)-N-(1-cyclopropyl-3-(methylsulfonyl)allyl)-6-(1,1-difluoroethyl)-4-phenoxynicotinamide] |
|  | 2.36 | 0.3 | 28.1 | 0.0699 |  | C[C@@H](/C=C/S(C)(=O)=O)NC(=O)c1ccc(C(C)(F)F)nc1Oc1ccccc1 [Example 232, (S,E)-6-(1,1-difluoroethyl)-N-(4-(methylsulfonyl)but-3-en-2-yl)-2-phenoxynicotinamide] |
|  | 0.48 | 0.072 | 17 | 0.0199 |  | CC(F)(F)c1ccc(C(=O)N[C@H](/C=C/S(C)(=O)=O)C2CC2)c(Oc2ccccc2)n1 [Example 233, (S,E)-N-(1-cyclopropyl-3-(methylsulfonyl)allyl)-6-(1,1-difluoroethyl)-2-phenoxynicotinamide] |
|  | 70 | 0.0893 | 8.3 | 0.0394 |  | CC(F)(F)c1nc(Oc2ccccc2)c(C(=O)N[C@H](/C=C/S(C)(=O)=O)C2CC2)cc1F [Example 235, (S,E)-N-(1-cyclopropyl-3-(methylsulfonyl)allyl)-6-(1,1-difluoroethyl)-5-fluoro-2-phenoxynicotinamide] |
|  | 30 |  | > 10 | 6.5 | 8.5 | C[C@@H](/C=C/S(C)(=O)=O)NC(=O)c1cc2c(cc1Oc1ccccc1)CCC2=O [Example 247, (S,E)-N-(4-(methylsulfonyl)but-3-en-2-yl)-3-oxo-6-phenoxy-2,3-dihydro-1H-indene-5-carboxamide] |
|  | 0.62 | 4.5 | 44.9 | 1.14 |  | Cn1ccc2cc(C(=O)N[C@H](/C=C/S(C)(=O)=O)C3CC3)c(Oc3ccccc3)nc21 [Example 250, (S,E)-N-(1-cyclopropyl-3-(methylsulfonyl)allyl)-1-methyl-6-phenoxy-1H-pyrrolo[2,3-b]pyridine-5-carboxamide] |
|  | 0.35 | 12 | > 30 | 2.1 |  | Cn1ncc2cc(C(=O)N[C@H](/C=C/S(C)(=O)=O)C3CC3)c(Oc3ccccc3)nc21 [Example 252, (S,E)-N-(1-cyclopropyl-3-(methylsulfonyl)allyl)-1-methyl-6-phenoxy-1H-pyrazolo[3,4-b]pyridine-5-carboxamide] |
|  | 3.77 | 1.14 | > 12.7 | 0.329 |  | C[C@@H](/C=C/S(C)(=O)=O)NC(=O)c1c(N)nc(C2CCCC2)nc1Oc1ccccc1 [Example 255, (S,E)-4-amino-2-cyclopentyl-N-(4-(methylsulfonyl)but-3-en-2-yl)-6-phenoxypyrimidine-5-carboxamide] |
|  | > 100 | 8.2 | 41 | 1.8 |  | C[C@@H](/C=C/S(C)(=O)=O)NC(=O)c1cnc(CC(F)(F)F)nc1Oc1ccccc1 [Example 260, (S,E)-N-(4-(methylsulfonyl)but-3-en-2-yl)-4-phenoxy-2-(2,2,2-trifluoroethyl)pyrimidine-5-carboxamide] |
|  | 1.79 | 0.88 | 38 | 0.35 |  | CS(=O)(=O)/C=C/[C@@H](NC(=O)c1cnc(CC(F)(F)F)nc1Oc1ccccc1)C1CC1 [Example 261, (S,E)-N-(1-cyclopropyl-3-(methylsulfonyl)allyl)-4-phenoxy-2-(2,2,2-trifluoroethyl)pyrimidine-5-carboxamide] |
|  | 23.3 | 1.7 | 14 | 2.1 |  | C=C(C#N)CNC(=O)c1cnc(C2CCCC2)nc1Oc1ccccc1 [Example 268, N-(2-cyanoallyl)-2-cyclopentyl-4-phenoxypyrimidine-5-carboxamide] |
|  | 25 |  | 17.9 | 3.3 | 6.1 | C=C(C#N)CNC(=O)c1cnc(C2CC2)nc1Oc1ccccc1 [Example 269, N-(2-cyanoallyl)-2-cyclopropyl-4-phenoxypyrimidine-5-carboxamide] |
|  | 8.53 | 0.91 | 11 | 0.51 |  | C=C(C#N)CNC(=O)c1cnc(C(C)(C)C)nc1Oc1ccccc1 [Example 270, 2-(tert-butyl)-N-(2-cyanoallyl)-4-phenoxypyrimidine-5-carboxamide] |
|  | 17.4 | 0.986 | 12 | 0.397 |  | C=C(C#N)CNC(=O)c1cnc(C(C)(F)F)nc1Oc1ccccc1 [Example 271, N-(2-cyanoallyl)-2-(1,1-difluoroethyl)-4-phenoxypyrimidine-5-carboxamide] |
|  | 3.58 | 1.4 | > 10 | 0.6 |  | C[C@@H](/C=C/S(C)(=O)=O)NC(=O)c1ccc(C2CCCC2)cc1Oc1ccccc1 [Example 286, (S,E)-4-cyclopentyl-N-(4-(methylsulfonyl)but-3-en-2-yl)-2-phenoxybenzamide] |
